Literature values, collected in patent US20240041034A1, “ANTIMICROBIAL COMPOSITION COMPRISING A DIOCTYLDIMETHYLAMMONIUM COMPOUND” (The Procter & Gamble Company, priority 2022, published 2024).

Details: in water, in the absence of surfactant

With `CCCCCCCC[N+](C)(C)CCCCCCCC.[Cl-]` [DODMAC, dioctyldimethylammonium chloride] as the molecule, how does the “Critical Micelle Concentration (CMC)” value read?
Its value is about 5000 ppm.
